Measured values as given in patent US7297704B2, “Cycloalkyfused indole, benzothiophene, benzofuran and idene derivatives” (Wyeth, priority 2005, dated 2007).
Counter-ions that a name gives are not always drawn. Like-named read-outs stand apart in the source and are kept apart here.

How the values were obtained:
h-5-HT-T = h-5-HT-T (Homo sapiens, UniProt P31645); assay: h-5-HT-T IC50 (Table 1, no method described)
Human 5-HT1A Receptor [1] = biological target: T1, Human 5-HT1A Receptor (Homo sapiens, UniProt P08908); assay: 8-OH-DPAT binding, human 5-HT1A receptor cell line; conditions: stably transfected CHO cells, 8-OH-DPAT ligand 1.5 nM; read-out: h5-HT1A Affinity, Ki
T1 construct: expressed in transfected cells; host or cells: CHO cells
T1 sequence (P08908 1-422): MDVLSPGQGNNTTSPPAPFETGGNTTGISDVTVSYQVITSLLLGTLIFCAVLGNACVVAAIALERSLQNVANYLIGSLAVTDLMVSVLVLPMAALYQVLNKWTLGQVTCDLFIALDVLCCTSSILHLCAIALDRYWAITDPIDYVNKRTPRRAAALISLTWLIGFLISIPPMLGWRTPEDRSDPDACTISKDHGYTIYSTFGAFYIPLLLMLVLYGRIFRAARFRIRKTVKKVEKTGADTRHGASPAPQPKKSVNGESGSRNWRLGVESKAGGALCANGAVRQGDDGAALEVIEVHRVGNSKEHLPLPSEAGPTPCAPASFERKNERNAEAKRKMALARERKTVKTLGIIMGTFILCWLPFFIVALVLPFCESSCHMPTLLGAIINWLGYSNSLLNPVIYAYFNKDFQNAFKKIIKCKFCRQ
Procedure: Stably transfected CHO cells were grown in DMEM containing 10% heat inactivated FBS and non-essential amino acids. Cells were scraped off the plate, transferred to centrifuge tubes, and washed twice by centrifugation (2000 rpm for 10 min., 4° C.) in buffer (50 mM Tris, pH 7.5). The resulting pellets were aliquoted and placed at −80° C. On day of assay, the cells were thawed on ice, and resuspended in buffer. The binding assay was performed in a 96 well microtiter plate in a total volume of […]. Non-specific binding was determined in the presence of […] 5HT; final ligand concentration was 1.5 nM. Following a 30 min. incubation at room temperature, the reaction was terminated by the addition of ice cold buffer and rapid filtration through a GF/B filter presoaked for 30 min. in 0.5% PEI. Compounds were initially tested in a single point assay to determine percent inhibition at […]. Subsequently, Ki values were determined for compounds defined to be active. Percent inhibition Ki was determined by RFComp (Lundon Software), with Serotonin 8-OH-DPAT as the reference compounds.

serotonin transporter = biological target: T2, serotonin transporter (Rattus norvegicus, UniProt P31652); assay: 3H-paroxetine binding to the serotonin transporter, rat frontal cortical membranes; conditions: 3H-paroxetine 0.1 nM; for Ki: values printed without parentheses, read-out: rb-5-HH-T, Ki
T2 construct: frontal cortical membranes prepared from male S.D. rats; from tissue; host or cells: rat frontal cortex membranes (male Sprague-Dawley)
Procedure: A protocol similar to that used by Cheetham et al. (Neuropharmacol. 32:737, 1993) was used to determine the affinity of compounds for the serotonin transporter. Briefly, frontal cortical membranes prepared from male S.D. rats were incubated with ^3H-paroxetine (0.1 nM) for 60 min at 25° C. All tubes also contained either vehicle, test compound (one to eight concentrations), or a saturating concentration of fluoxetine (10 μM) to define […]. All reactions are terminated by the addition of ice cold Tris buffer followed by rapid filtration using a Tom Tech filtration device to separate bound from free ^3H-paroxetine. Bound radioactivity was quantitated using a Wallac 1205 Beta Plate® counter. Nonlinear regression analysis was used to determine IC50 values which were converted to Ki values using the method of Cheng and Prusoff (Biochem. Pharmacol. 22: 3099, 1973); […].

Human 5-HT1A Receptor [2] = biological target: T1, Human 5-HT1A Receptor; assay: cAMP RIA in human 5-HT1A receptor cell line; type: cell-based; conditions: CHO cells; for Emax: superscript c, read-out: c-AMP, (Emax)^c; for Emax / EC50: forskolin stimulated cAMP; for EC50: superscript a, read-out: c-AMP, (EC50)^a; for IC50: superscript b, reversal of agonist activity, read-out: c-AMP, (IC50)^b
Procedure: Stably transfected CHO cells were grown in DMEM containing 10% heat inactivated FBS and non-essential amino acids. The cells were plated at a density of 10^6 cells per well in a 96 well plate and incubated for 2 days in a CO2 incubator. On the second day, the media was replaced with 0.1 ml Krebs and incubated 15 minutes at 37° C. The media was then replaced with Krebs buffer containing 500 uM IBMX and incubated 5 minutes at 37° C. Wells were treated with forskolin (1 uM final conc) followed immediately by test compound (0.1 and 1 uM for initial screen) and incubated for an additional 10 min at 37° C. Reaction was terminated by removal of the media and addition of 0.5 ml ice cold assay buffer (supplied in RIA kit). Plates are stored at −20° C. prior to assessment of cAMP formation by RIA. Compounds shown to have no agonist activities were further analyzed for ability to reverse agonist activity. In separate experiments, 6 concentrations of antagonist were preincubated for 20 min prior to the addition of agonist and forskolin. Cells were harvested as described. The cAMP kit is supplied by Amersham and the RIA is performed as per kit instructions. In the initial screen, percent inhibition of forskolin stimulated cAMP was measured. In the secondary screen, IC50 of reversal of agonist activity was measured. Calculations of IC50 were performed by GraphPad Prism. Serotonin, BMY 7378, Buspirone, and 8-OH-DPAT were used as reference compounds.

h-5-HT-T, sequence (P31645 whole entry): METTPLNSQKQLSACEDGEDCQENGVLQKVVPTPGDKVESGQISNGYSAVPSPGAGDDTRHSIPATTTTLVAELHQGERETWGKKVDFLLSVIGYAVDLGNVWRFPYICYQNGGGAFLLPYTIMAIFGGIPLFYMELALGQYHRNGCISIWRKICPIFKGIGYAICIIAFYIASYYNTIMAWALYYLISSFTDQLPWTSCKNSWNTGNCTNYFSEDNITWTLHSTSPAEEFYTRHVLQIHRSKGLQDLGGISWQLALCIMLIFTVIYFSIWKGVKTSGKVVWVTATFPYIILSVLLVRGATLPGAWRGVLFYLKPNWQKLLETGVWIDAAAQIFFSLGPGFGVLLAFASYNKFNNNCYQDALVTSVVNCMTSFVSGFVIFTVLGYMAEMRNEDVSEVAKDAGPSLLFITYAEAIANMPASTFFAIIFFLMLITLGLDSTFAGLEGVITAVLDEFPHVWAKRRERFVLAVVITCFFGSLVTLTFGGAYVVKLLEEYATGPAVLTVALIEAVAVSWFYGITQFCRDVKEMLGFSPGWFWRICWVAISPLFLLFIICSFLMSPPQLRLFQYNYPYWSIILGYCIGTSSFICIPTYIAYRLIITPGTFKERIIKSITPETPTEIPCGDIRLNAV
T2 sequence (P31652 whole entry): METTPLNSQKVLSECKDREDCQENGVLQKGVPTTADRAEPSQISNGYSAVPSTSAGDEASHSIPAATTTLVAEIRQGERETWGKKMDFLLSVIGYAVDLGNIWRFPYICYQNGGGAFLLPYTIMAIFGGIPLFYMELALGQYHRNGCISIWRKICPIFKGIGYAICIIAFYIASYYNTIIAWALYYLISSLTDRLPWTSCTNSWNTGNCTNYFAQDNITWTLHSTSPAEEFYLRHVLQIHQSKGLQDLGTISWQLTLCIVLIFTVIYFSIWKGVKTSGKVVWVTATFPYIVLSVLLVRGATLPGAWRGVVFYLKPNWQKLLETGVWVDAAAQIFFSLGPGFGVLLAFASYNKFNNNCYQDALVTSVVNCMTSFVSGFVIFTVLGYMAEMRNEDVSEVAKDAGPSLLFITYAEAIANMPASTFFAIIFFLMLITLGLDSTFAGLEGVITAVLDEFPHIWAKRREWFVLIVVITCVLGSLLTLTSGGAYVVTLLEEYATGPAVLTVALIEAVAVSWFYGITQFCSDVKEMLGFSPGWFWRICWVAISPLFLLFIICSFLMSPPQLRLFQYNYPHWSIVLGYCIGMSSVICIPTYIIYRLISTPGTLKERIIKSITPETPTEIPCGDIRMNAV

| SMILES | IC50 (h-5-HT-T) [nM] | Ki (Human 5-HT1A Receptor [1]) [nM] | Ki (serotonin transporter) [nM] | EC50 (Human 5-HT1A Receptor [2]) [nM] | Emax (Human 5-HT1A Receptor [2]) [%] | other results |
| --- | --- | --- | --- | --- | --- | --- |
| Cc1ccc2c3c(ccc2n1)OC[C@H](CNC1CCc2c([nH]c4ccc(F)cc24)C1)O3 (mixture of isomers) [Example 46, 6-Fluoro-N-{[(2S)-8-methyl-2,3-dihydro[1,4]dioxino[2,3-f]quinolin-2-yl]methyl}-2,3,4,9-tetrahydro-1H-carbazol-2-amine] | 52.5 ± 1.73 | 231 | 8.55 | 155 | – | Emax (Human 5-HT1A Receptor [2]; CHO): 70% |
| Cc1ccc2c3c(ccc2n1)OC[C@H](CNCC1CCc2sc4ccccc4c2C1)O3 (single isomer, unassigned) [32 diastereomer 2] | 885 | 6.49 | 47.6 | – | – | IC50 (Human 5-HT1A Receptor [2]): 17.7 nM |
| Cc1ccc2c3c(ccc2n1)OC[C@H](CN[C@@H]1CCc2c([nH]c4ccccc24)C1)O3 (single isomer, unassigned) [Example 44, dihydrochloride] | 22.1 ± 2.51 | 620 | – | 225 | 74 | – |
| Cc1ccc2c3c(ccc2n1)OC[C@H](CN[C@@H]1CCc2c([nH]c4ccc(F)cc24)C1)O3 (single isomer, unassigned) [Example 47, dihydrochloride] | 102 ± 7.07 | 186 | 12.8 | 300 | 59 | – |
| Cc1ccc2c3c(ccc2n1)OC[C@H](CN[C@H]1CCc2c([nH]c4ccc(F)cc24)C1)O3 (single isomer, unassigned) [Example 48, dihydrochloride] | 31.9 ± 5.34 | 7.4 | 46.7 ± 2.07 | – | – | IC50 (Human 5-HT1A Receptor [2]): 168 nM |
| Cc1ccc2c3c(ccc2n1)OC[C@H](CNC[C@@H]1CCc2[nH]c4ccc(C#N)cc4c2C1)O3.Cl.Cl [Example 15, (3R)-3-[({[(2S)-8-methyl-2,3-dihydro[1,4]dioxino[2,3-f]quinolin-2-yl]methyl}amino)methyl]-2,3,4,9-tetrahydro-1H-carbazole-6-carbonitrile dihydrochloride] | – | 15 | – | – | – | IC50 (serotonin transporter; values printed in parentheses, read-out: rb-5-HH-T, (IC50)): 2.25 nM; melting point: 254 to 258 °C; IC50 (Human 5-HT1A Receptor [2]): 888 nM |
| CCCN(CC1CCc2[nH]c3ccc(F)cc3c2C1)C[C@H]1COc2ccc3nc(C)ccc3c2O1 (stereo partly drawn) [Example 51, N-[(6-Fluoro-2,3,4,9-tetrahydro-1H-carbazol-3-yl)methyl]-N-{[(2S)-8-methyl-2,3-dihydro[1,4]dioxino[2,3-f]quinolin-2-yl]methyl}propan-1-amine dihydrochloride dihydrate] | 22.3 ± 3.32 | 1290 | 88 | 171 | 59 | – |
| Cc1ccc2c3c(ccc2n1)OC[C@H](CN(C[C@@H]1CCc2[nH]c4ccc(F)cc4c2C1)C(C)C)O3 [Example 57, N-{[(3R)-6-Fluoro-2,3,4,9-tetrahydro-1H-carbazol-3-yl]methyl}-N-{[(2S)-8-methyl-2,3-dihydro[1,4]dioxino[2,3-f]quinolin-2-yl]methyl}propan-2-amine monohydrochloride monohydrate] | 1130 ± 109 | 6140 | 1570 | – | – | – |
| Cc1ccc2c3c(ccc2n1)OC[C@H](CN(C[C@@H]1CCc2[nH]c4ccc(F)cc4c2C1)C1CCCCC1)O3 [Example 60, N-{[(3R)-6-fluoro-2,3,4,9-tetrahydro-1H-carbazol-3-yl]methyl}-N-{[(2S)-8-methyl-2,3-dihydro[1,4]dioxino[2,3-f]quinolin-2-yl]methyl}cyclohexanamine monohydrochloride monohydrate] | 995 ± 24.4 | – | 394 | – | – | – |
| Cc1ccc2c3c(ccc2n1)OC[C@H](CN(C[C@H]1CCc2[nH]c4ccc(F)cc4c2C1)C(C)C)O3 [Example 61, N-{[(3S)-6-Fluoro-2,3,4,9-tetrahydro-1H-carbazol-3-yl]methyl}-N-{[(2S)-8-methyl-2,3-dihydro[1,4]dioxino[2,3-f]quinolin-2-yl]methyl}propan-2-amine monohydrochloride monohydrate] | 1700 ± 46 | – | – | – | – | – |
| CCC(C)N(C[C@H]1CCc2[nH]c3ccc(F)cc3c2C1)C[C@H]1COc2ccc3nc(C)ccc3c2O1 (stereo partly drawn) [Example 62, N-{[(3S)-6-Fluoro-2,3,4,9-tetrahydro-1H-carbazol-3-yl]methyl}-N-{[(2S)-8-methyl-2,3-dihydro[1,4]dioxino[2,3-f]quinolin-2-yl]methyl}butan-2-amine monohydrochloride monohydrate] | 730 ± 9.19 | 1960 | – | – | – | – |
| Cc1ccc2c3c(ccc2n1)OC[C@H](CN(C[C@H]1CCc2[nH]c4ccc(F)cc4c2C1)C1CCCC1)O3 [Example 63, N-{[(3S)-6-Fluoro-2,3,4,9-tetrahydro-1H-carbazol-3-yl]methyl}-N-{[(2S)-8-methyl-2,3-dihydro[1,4]dioxino[2,3-f]quinolin-2-yl]methyl}cyclopentanamine monohydrochloride monohydrate] | 389 ± 38.2 | – | 113 | 1350 | 73 | – |
| Cc1ccc2c3c(ccc2n1)OC[C@H](CN(C[C@H]1CCc2[nH]c4ccc(F)cc4c2C1)C1CCCCC1)O3 [Example 64, N-{[(3S)-6-Fluoro-2,3,4,9-tetrahydro-1H-carbazol-3-yl]methyl}-N-{[(2S)-8-methyl-2,3-dihydro[1,4]dioxino[2,3-f]quinolin-2-yl]methyl}cyclohexanamine monohydrochloride monohydrate] | 2490 ± 269 | – | 455 | – | – | – |
| Cc1ccc2c3c(ccc2n1)OCC(CN(CC1CCc2c(c4cc(F)ccc4n2C)C1)C(C)C)O3 [Example 65, N-[(6-Fluoro-9-methyl-2,3,4,9-tetrahydro-1H-carbazol-3-yl)methyl]-N-([(2S)-8-methyl-2,3-dihydro[1,4]dioxino[2,3-f]quinolin-2-yl]methylpropan-2-aminemonohydrochloride monohydrate] | 403 ± 29 | – | – | – | – | – |
| Cc1ccc2c3c(ccc2n1)OC[C@H](CN(CC1CCc2c(c4cc(F)ccc4n2C)C1)C1CCCC1)O3 (stereo partly drawn) [Example 66, N-[(6-Fluoro-9-methyl-2,3,4,9-tetrahydro-1H-carbazol-3-yl)methyl]-N-{[(2S)-8-methyl-2,3-dihydro[1,4]dioxino[2,3-f]quinolin-2-yl]methyl}cyclopentanamine monohydrochloride monohydrate] | 62.3 ± 9.19 | – | – | 163 | 67.5 | – |
| Cc1ccc2c3c(ccc2n1)OC[C@H](CN(CC1CCc2c(c4cc(F)ccc4n2C)C1)C1CCCCC1)O3 (stereo partly drawn) [Example 67, N-[(6-Fluoro-9-methyl-2,3,4,9-tetrahydro-1H-carbazol-3-yl)methyl]-N-{[(2S)-8-methyl-2,3-dihydro[1,4]dioxino[2,3-f]quinolin-2-yl]methyl}cyclohexanamine monohydrochloride monohydrate] | 505 ± 9.55 | – | – | – | – | – |
